Results taken from patent publication US10400008B2, “Modulators of the SRC-kinase activity for preventing or treating metastatic cancer” (Cancer Research Technology Limited, priority 2013, dated 2019).
Several values for one entry are separate records, joined by “and”; a condition that tells them apart may be missing. Identical values can stand only once.

Key:
[1] = biological target: T1, AR/Src complex (Homo sapiens, UniProt P12931); assay: EGFR/AR/Src association by immunoprecipitation in EGF-stimulated HT1080 cells; assay type: cell-based; conditions: EGF 100 ng/ml 10 min, peptide 1 nM
T1 construct: endogenous in cells; host or cells: HT1080 human fibrosarcoma cells
Protocol: FIG. 3: Inhibition by S1 peptide of AR/Src complex, Src activation and DNA synthesis triggered by EGF in HT1080 cells. Quiescent HT1080 cells were used. The cells were left un-stimulated or stimulated for 10 min with EGF (at 100 ng/ml; Roche) in the absence or presence of S1 or Ss peptide (both at 1 nM). Casodex (at 10 μM) was used for comparison with the S1 peptide. The same concentrations of peptides and Casodex were used throughout the experiments. Upper section in A, the Western blot of HT1080 cell lysates with anti-EGFR antibody is shown. […] Lower section in A, lysates were immune-precipitated with anti EGFR Ab and proteins in immune-complexes were detected using antibodies against the indicated proteins. In B, lysates were immune-precipitated with the anti-Src MAb and Src activity in immune-complexes was assayed using enolase as a substrate. In C, cells on coverslips were left untreated or treated for 18 h with the indicated compounds. After in vivo pulse with BrdU (100 μM; Sigma), BrdU incorporation was analyzed by IF and expressed as % of total nuclei. Mean and SEM are shown. n represents the number of experiments.
Src tyrosine kinase was immune-precipitated, detected and assayed using enolase as a substrate (15). Src, EGF-R and tubulin were detected from cell lysates using appropriate antibodies (7). AR was immune-precipitated and detected as reported (3). […]

[2] = test system: HT1080 cells; assay: Migration in Trans-well filters and wound healing of HT1080 cells; assay type: cell-based, human; conditions: 6 h, peptide 1 nM
Protocol: FIG. 4: The S1 peptide inhibits EGF-stimulated migration and MMP-9 secretion in HT1080 cells. Quiescent HT1080 cells were used. In A, cells were left untreated or treated for 6 h with the indicated compounds. MMP-9 release was assayed as described in Methods. In B, cells were allowed to migrate for 6 h in Trans-well filters in the absence or presence of the indicated compounds. Migrated cells were stained and counted as reported in Methods. In A and B, data were expressed as relative increase. Mean and SEM is shown. n represents the number of experiments. In C, cells were wounded and then left unstimulated or stimulated for 6 h with the indicated compounds. Contrast-phase images are representative of 3 different experiments, each performed in duplicate.
BrdU incorporation, migration and wound healing analysis were done as described (3, 11). MMP-9 activity was assayed (12, 13), using the fluorescent AK411 kit (BIOMOL Res. Lab.).

[3] = Body weight in the orthotopic PC-3 prostate cancer model
Protocol: Mice were weighed twice a week, and after 4 weeks, mice were sacrificed. Gross necropsy was performed to all animals at the end of the study, and all macroscopic signs were recorded. Volume of the prostate tumors was measured and prostate as well as prostate draining lymph nodes were collected for histology. The number of metastasis in lymph nodes was determined under microscope.
The animals were weighed twice a week. For the last 5 days of the study, the animals were observed daily to monitor the progression of disease. Appearance of any clinical signs was recorded on follow-up forms. Analgesic was given if needed.
At the end of the study, the animals were weighed and sacrificed with cervical dislocation under anesthesia. Necropsy was carried out in all animals. Macroscopic findings were recorded on the follow-up forms. Tissue samples from prostate with tumor and lymph nodes were collected for histology and number of metastases in lymph nodes was determined.
Statistical analysis was performed with R: A Language and Environment for Statistical Computing (version 2.14.2; R Development Core Team, Vienna, Austria). The mean and standard deviation of the body weights and the tumor volumes at sacrifice were determined. Normality of the distributions and homogeneity of variance were checked before further analyses. In case of violating these assumptions, either log transformation or other appropriate transformation (e.g. square root, reciprocal) was applied. If the assumptions were fulfilled as such or after transformation, one-way ANOVA was used to study if the values obtained between the groups were statistically different (with p<0.05). If differences were found, Tukey's HSD test was used for pairwise comparison between all groups. If the assumptions were not fulfilled even after the transformations described above, the non-parametric Kruskal-Wallis test followed by Mann-Whitney U-test were used.
We have studied the effects of Val201 on cell proliferation of the ER positive human prostate cancer cell line PC-3 in vitro and growth and metastatis in vivo in an orthotopic xenograft model. The proliferation effects were studied for 100 pM, 1 nM, 10 nM, 100 nM and 1 μM concentrations of VAL201 by measuring WST-1 values at days 3, 5, 7 and 9. Groups with vehicle and 1 μM gemcitabine as reference compound were included in the study. […] PC-3 cells in Matrigel were inoculated orthotopically into the prostate. Subcutaneous dosing was started at day 1 and continued daily for 28 days. The mice were weighed twice a week. Orthotopic tumors were measured by calliper and the prostate and the regional lymph nodes were harvested at sacrifice. Metastases in lymph nodes were determined from HE stained paraffin sections.

[4] = test system: plugs of uterine tissue (endometriosis lesions); assay: Dose ranging prevention study: lesion burden, growth and establishment of transplanted uterine tissue plugs; assay type: in vivo, C57BL6 mice; conditions: for Lesion establishment, single plug (P1-P4, M1, M2): 1 or 0 per plug, individual mouse; for Lesion establishment, single plug (P1-P4, M1, M2) / Lesion burden, Ave / Lesion growth, Ave / Lesion burden, Mean / Lesion establishment, Mean / Lesion growth, Mean / Lesion burden, single plug (P1-P6) / Lesion growth, single plug (P1-P4, M1, M2) / Lesion establishment, Ave: prevention; for Lesion burden, Ave / Lesion growth, Ave: average per mouse; for lesion burden / lesion growth: control 7.18; for Lesion burden, Mean / Lesion establishment, Mean / Lesion growth, Mean: group mean; for Lesion burden, single plug (P1-P6) / Lesion growth, single plug (P1-P4, M1, M2): individual mouse and plug; for Lesion establishment, Ave: per mouse
[5] = 1 ng/mouse s.c. daily, listed as ValiRx1
[6] = 10 ng/mouse s.c. daily, listed as ValiRx1
[7] = 100 ng/mouse s.c. daily, listed as ValiRx1
[8] = first of three dose groups (1 ng, 10 ng, 100 ng daily s.c.)
[9] = second of three dose groups (1 ng, 10 ng, 100 ng daily s.c.)
[10] = third of three dose groups (1 ng, 10 ng, 100 ng daily s.c.)

T1 sequence (P12931 2-536 limits assumed, one chain of several): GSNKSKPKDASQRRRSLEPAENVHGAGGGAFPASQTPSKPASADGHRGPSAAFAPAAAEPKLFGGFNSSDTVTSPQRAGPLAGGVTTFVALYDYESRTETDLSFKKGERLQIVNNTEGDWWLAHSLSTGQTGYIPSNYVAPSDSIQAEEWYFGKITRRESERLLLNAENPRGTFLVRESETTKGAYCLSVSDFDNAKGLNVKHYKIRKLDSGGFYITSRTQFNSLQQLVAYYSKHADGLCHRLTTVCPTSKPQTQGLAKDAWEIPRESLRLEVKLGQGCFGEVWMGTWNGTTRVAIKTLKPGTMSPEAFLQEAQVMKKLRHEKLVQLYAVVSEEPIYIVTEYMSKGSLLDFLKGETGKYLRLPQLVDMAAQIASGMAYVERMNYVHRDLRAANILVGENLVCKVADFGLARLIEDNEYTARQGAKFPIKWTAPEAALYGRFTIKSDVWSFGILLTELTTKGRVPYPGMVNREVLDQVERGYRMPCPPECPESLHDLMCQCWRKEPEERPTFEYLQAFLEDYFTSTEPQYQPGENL

Ac-PPPHPHARIK-NH2 [VAL001]
EGF-induced AR/Src association and AR/Src association with EGF-R [1]: abolishes
EGF-increased motility [2]: inhibited at a similar extent
Body weight at sacrifice relative to maximum weight ([3]; 0.004 mg/kg, mean): 96.6
Body weight at sacrifice relative to maximum weight ([3]; 0.004 mg/kg, single animals): 95.1 (2×) and 100.0 and 93.8 and 95.7 and 97.9 and 94.1 and 97.8 and 97.6 and 99.2
Body weight at sacrifice relative to maximum weight ([3]; 0.04 mg/kg, mean): 96.1
Body weight at sacrifice relative to maximum weight ([3]; 0.04 mg/kg, single animals): 100.0 and 96.1 and 94.9 and 96.7 and 93.8 and 93.0 and 94.8 and 98.0 (2×) and 96.2
Body weight at sacrifice relative to maximum weight ([3]; 0.4 mg/kg, mean): 97.6
Body weight at sacrifice relative to maximum weight ([3]; 0.4 mg/kg, single animals): 98.2 and 91.1 and 96.6 and 90.7 and 100.0 (4×) and 99.5 and 99.6
Body weight at sacrifice relative to maximum weight ([3]; 4 mg/kg, mean): 95.3
Body weight at sacrifice relative to maximum weight ([3]; 4 mg/kg, single animals): 100.0 and 90.8 and 86.2 and 95.7 and 96.8 and 95.5 and 98.2 and 98.4 and 98.0 and 93.3
Lesion establishment, single plug (P1-P4, M1, M2) [4, 5]: 1 (29×) and 0
Lesion establishment, single plug (P1-P4, M1, M2) [4, 6]: 1 (29×) and 0
Lesion establishment, single plug (P1-P4, M1, M2) ([4]; 100 ng/mouse s.c. daily): 1
Lesion burden, Ave [4, 5]: 6.5 mm^2 and 8.5 mm^2 and 1.1 mm^2 and 1.9 mm^2 and 12.1 mm^2
Lesion growth, Ave [4, 5]: 6.5 mm^2 and 8.5 mm^2 and 1.3 mm^2 and 1.9 mm^2 and 12.1 mm^2
Lesion burden, Ave [4, 6]: 2.9 mm^2 and 6.7 mm^2 and 11.3 mm^2 and 3.3 mm^2 and 3.5 mm^2
Lesion growth, Ave [4, 6]: 2.9 mm^2 and 6.7 mm^2 and 11.3 mm^2 and 3.3 mm^2 and 4.2 mm^2
Lesion burden, Ave [4, 7]: 11.8 mm^2 and 1.8 mm^2 and 3.2 mm^2 and 3.0 mm^2 and 2.9 mm^2
Lesion growth, Ave [4, 7]: 11.8 mm^2 and 1.8 mm^2 and 3.2 mm^2 and 3.0 mm^2 and 2.9 mm^2
lesion growth following treatment ([4]; daily 1 ng, 10 ng or 100 ng s.c., dosed group vs control): significantly reduced
lesion burden [4, 8]: 6.02 mm^2
lesion growth [4, 8]: 6.23 mm^2
Lesion burden, Mean ([4]; 1 ng/mouse s.c. daily): 6.02 mm^2
Lesion establishment, Mean ([4]; 1 ng/mouse s.c. daily): 96.67%
Lesion growth, Mean ([4]; 1 ng/mouse s.c. daily): 6.23 mm^2
Lesion burden, Mean ([4]; 10 ng/mouse s.c. daily): 5.53 mm^2
Lesion establishment, Mean ([4]; 10 ng/mouse s.c. daily): 96.67%
Lesion growth, Mean ([4]; 10 ng/mouse s.c. daily): 5.72 mm^2
Lesion burden, Mean ([4]; 100 ng/mouse s.c. daily): 4.52 mm^2
Lesion establishment, Mean ([4]; 100 ng/mouse s.c. daily): 100.00%
Lesion growth, Mean ([4]; 100 ng/mouse s.c. daily): 4.52 mm^2
Lesion burden, single plug (P1-P6) [4, 5]: 1.1 mm^2 (3×) and 3.1 mm^2 and 2.5 mm^2 and 4.2 mm^2 and 16.7 mm^2 and 15.2 mm^2 and 3.8 mm^2 (2×) and 0.2 mm^2 (3×) and 6.2 mm^2 and 0.5 mm^2 and 9.4 mm^2 and 0.0 mm^2 and 3.5 mm^2 (2×) and 17.0 mm^2 and 11.2 mm^2 and 8.0 mm^2 (2×) and 15.1 mm^2 and 5.7 mm^2 and 10.2 mm^2 and 10.6 mm^2 and 16.6 mm^2 and 1.8 mm^2 and 0.1 mm^2
Lesion growth, single plug (P1-P4, M1, M2) [4, 5]: 1.131 mm^2 (3×) and 3.142 mm^2 and 2.545 mm^2 and 4.155 mm^2 and 16.74 mm^2 and 15.21 mm^2 and 3.801 mm^2 (2×) and 0.196 mm^2 (3×) and 6.158 mm^2 and 0.503 mm^2 and 9.425 mm^2 and 3.456 mm^2 and 3.464 mm^2 and 16.96 mm^2 and 11.2 mm^2 and 8.042 mm^2 (2×) and 15.1 mm^2 and 5.694 mm^2 and 10.18 mm^2 and 10.56 mm^2 and 16.62 mm^2 and 1.767 mm^2 and 0.126 mm^2
Lesion burden, single plug (P1-P6) [4, 6]: 1.0 mm^2 (3×) and 3.5 mm^2 (5×) and 10.9 mm^2 and 7.3 mm^2 and 10.0 mm^2 and 4.5 mm^2 (2×) and 12.6 mm^2 and 7.0 mm^2 and 9.6 mm^2 and 3.1 mm^2 (2×) and 1.1 mm^2 and 2.5 mm^2 and 0.2 mm^2 and 6.7 mm^2 and 7.1 mm^2 and 5.4 mm^2 and 21.1 mm^2 and 12.1 mm^2 and 3.0 mm^2 and 0.0 mm^2 and 4.0 mm^2 and 9.7 mm^2
Lesion growth, single plug (P1-P4, M1, M2) [4, 6]: 0.95 mm^2 (3×) and 3.464 mm^2 (5×) and 10.95 mm^2 and 7.288 mm^2 and 10.02 mm^2 and 4.524 mm^2 (2×) and 12.57 mm^2 and 7.037 mm^2 and 9.621 mm^2 and 3.142 mm^2 (2×) and 1.131 mm^2 and 2.545 mm^2 and 0.196 mm^2 and 6.739 mm^2 and 7.069 mm^2 and 5.372 mm^2 and 21.11 mm^2 and 12.06 mm^2 and 2.969 mm^2 and 3.958 mm^2 and 9.66 mm^2
Lesion burden, single plug (P1-P6) [4, 7]: 7.0 mm^2 and 18.5 mm^2 and 11.0 mm^2 and 4.5 mm^2 and 2.8 mm^2 (3×) and 2.3 mm^2 (3×) and 2.0 mm^2 (2×) and 3.1 mm^2 and 3.5 mm^2 (3×) and 1.5 mm^2 and 4.9 mm^2 and 8.4 mm^2 and 12.6 mm^2 and 13.2 mm^2 and 0.2 mm^2 and 1.0 mm^2 and 0.3 mm^2 (2×) and 3.8 mm^2 (2×) and 7.5 mm^2 and 2.5 mm^2 and 1.8 mm^2
Lesion growth, single plug (P1-P4, M1, M2) [4, 7]: 7.037 mm^2 and 18.47 mm^2 and 11 mm^2 and 4.453 mm^2 and 2.827 mm^2 (2×) and 2.27 mm^2 (3×) and 2.011 mm^2 (2×) and 3.142 mm^2 and 3.464 mm^2 (3×) and 1.539 mm^2 and 4.909 mm^2 and 8.357 mm^2 and 12.57 mm^2 and 13.2 mm^2 and 0.196 mm^2 and 0.95 mm^2 and 0.283 mm^2 (2×) and 3.801 mm^2 (2×) and 7.548 mm^2 and 2.545 mm^2 and 2.835 mm^2 and 1.767 mm^2
Lesion establishment, Ave [4, 5]: 100% (4×) and 83.33%
Lesion establishment, Ave [4, 6]: 100% (4×) and 83.33%
Lesion establishment, Ave ([4]; 100 ng/mouse s.c. daily): 100%
lesion burden [4, 9]: 5.53 mm^2
lesion growth [4, 9]: 5.72 mm^2
lesion burden [4, 10]: 4.52 mm^2
lesion growth [4, 10]: 4.52 mm^2
